These results are taken from US11236084B2, “Substituted azaindoline derivatives as NIK inhibitors” (Janssen Pharmaceutica NV, priority 2017, dated 2022).

As usually defined, the IC50 is the point on the concentration scale where inhibition reaches its midpoint.

Where two headings read alike, the source gives them in different places.

This assay deals with recombinant human NF-kappaB-inducing kinase (NIK/MAP3K14) (Homo sapiens, UniProt Q99558). Kind of assay: Biological Assay B: inhibition of auto-phosphorylation of recombinant human NIK/MAP3K14 (AlphaScreen), performed at 2 locations. It counts as biochemical. To be noted: AlphaScreen auto-phosphorylation, averaged values. As to the method:
Inhibition of Auto-Phosphorylation of Recombinant Human NF-kappaB-Inducing Kinase (NIK/MAP3K14) Activity (AlphaScreen®)
NIK/MAP3K14 auto-phosphorylation activity was measured using the AlphaScreen® (αscreen) format (Perkin Elmer). All compounds tested were dissolved in dimethyl sulfoxide (DMSO) and further dilutions were made in assay buffer. Final DMSO concentration was 1% (v/v) in assays. Assay buffer was 50 mM Tris pH 7.5 containing 1 mM EGTA (ethylene glycol tetraacetic acid), 1 mM DTT (dithiothreitol), 0.1 mM Na3VO4, 5 mM MgCl2, 0.01% Tween® 20. Assays were carried out in 384 well Alphaplates (Perkin Elmer). Incubations consisted of compound, 25 microM Adenosine-5′-triphosphate (ATP), and 0.2 nM NIK/MAP3K14. Incubations were initiated by addition of GST-tagged NIK/MAP3K14 enzyme, carried out for 1 h at 25° C. and terminated by addition of stop buffer containing anti-phospho-IKK Ser176/180 antibody. Protein A Acceptor and Glutathione-Donor beads were added before reading using an EnVision® Multilabel Plate Reader (Perkin Elmer). Signal obtained in the wells containing blank samples was subtracted from all other wells and IC50's were determined by fitting a sigmoidal curve to % inhibition of control versus Log10 compound concentration.
Assay B was performed at 2 different locations.
Data for the compounds of the invention in the above assays are provided in Table A (the values in Table are averaged values over all measurements on all batches of a compound; values as IC50 (nM)). (‘n.c.’ means not calculated: ‘Co.’ means compound)

Setting [1] is: location 1, read-out: Assay B location 1 IC50.
The mark [2] stands for this setting: location 2, read-out: Assay B location 2 IC50.

recombinant human NF-kappaB-inducing kinase (NIK/MAP3K14), sequence (Q99558 whole entry): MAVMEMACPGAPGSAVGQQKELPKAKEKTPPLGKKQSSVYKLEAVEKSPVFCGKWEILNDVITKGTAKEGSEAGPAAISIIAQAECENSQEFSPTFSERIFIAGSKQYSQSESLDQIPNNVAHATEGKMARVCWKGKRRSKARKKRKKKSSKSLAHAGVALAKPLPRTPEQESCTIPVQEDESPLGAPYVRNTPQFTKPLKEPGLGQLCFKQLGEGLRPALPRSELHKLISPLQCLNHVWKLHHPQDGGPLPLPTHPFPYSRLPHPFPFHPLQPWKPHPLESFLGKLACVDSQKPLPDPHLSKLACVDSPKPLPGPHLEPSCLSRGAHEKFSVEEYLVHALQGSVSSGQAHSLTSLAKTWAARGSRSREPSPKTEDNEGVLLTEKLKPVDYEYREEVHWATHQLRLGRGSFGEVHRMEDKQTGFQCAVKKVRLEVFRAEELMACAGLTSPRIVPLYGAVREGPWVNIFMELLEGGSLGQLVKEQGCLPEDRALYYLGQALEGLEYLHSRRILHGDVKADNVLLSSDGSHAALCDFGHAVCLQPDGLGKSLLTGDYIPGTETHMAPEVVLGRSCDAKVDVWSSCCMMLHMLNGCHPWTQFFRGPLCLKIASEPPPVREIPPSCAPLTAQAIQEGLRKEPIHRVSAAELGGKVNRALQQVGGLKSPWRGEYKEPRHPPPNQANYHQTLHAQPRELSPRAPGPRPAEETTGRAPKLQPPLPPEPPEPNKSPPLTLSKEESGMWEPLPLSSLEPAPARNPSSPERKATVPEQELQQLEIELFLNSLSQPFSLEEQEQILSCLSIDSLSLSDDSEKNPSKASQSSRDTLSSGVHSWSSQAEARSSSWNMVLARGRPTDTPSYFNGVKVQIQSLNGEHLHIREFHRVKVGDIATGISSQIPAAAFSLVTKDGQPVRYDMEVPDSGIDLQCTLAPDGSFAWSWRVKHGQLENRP

`COc1cc(N2CC3(CCOCC3)C2)c(Cl)cc1Nc1nccc(-c2cnc3c(c2)C(C)(CO)CN3)n1` (single isomer, unassigned) [Compound 3R]: the IC50 under setting [1] was 18.3 nM and the IC50 under setting [2] amounted to 5.7 nM.

With `COc1cc(N2CCOCC2)c(C#N)cc1Nc1nccc(-c2cnc3c(c2)C(C)(CO)CN3)n1` (single isomer, unassigned) [Compound 4R], the IC50 is, setting by setting: under setting [1], 55 nM; under setting [2], 36.3 nM. Regarding `COCCN(C)c1cc(OC)c(Nc2nccc(-c3cnc4c(c3)C(C)(CO)CN4)n2)cc1Cl` (single isomer, unassigned) [Compound 5R], the IC50 under setting [2] amounted to 31.6 nM. On the same count and under the same terms, as for `COCCN(C)c1cc(OC)c(Nc2nccc(-c3cnc4c(c3)C(C)(CO)CN4)n2)cc1Cl` (single isomer, unassigned) [Compound 5S], the figure is 1.6 nM. Turning to `COc1cc(N2CCOCC2)c(Cl)cc1Nc1nccc(-c2cnc3c(c2)C(C)(CO)CN3)n1` (single isomer, unassigned) [Compound 6R], the IC50 under setting [1] came to 19.1 nM and the IC50 under setting [2] came to 27.7 nM. Taken in the same sequence, the figures for `COc1cc(N2CCOCC2)c(Cl)cc1Nc1nccc(-c2cnc3c(c2)C(C)(CO)CN3)n1` (single isomer, unassigned) [Compound 6S] were 4 nM and 2.4 nM. For `COc1cc(N2CC3(CCOCC3)C2)c(F)cc1Nc1nccc(-c2cnc3c(c2)C(C)(CO)CN3)n1` (single isomer, unassigned) [Compound 7R] the same measures were 70.8 nM and 19.1 nM.

For the compound `COc1cc(N2CC3(CCOCC3)C2)c(F)cc1Nc1nccc(-c2cnc3c(c2)C(C)(CO)CN3)n1` (single isomer, unassigned) [Compound 7S], the IC50 reads like this: under setting [1], 7.8 nM; under setting [2], 1.6 nM.

Turning to `COc1cc(C(=O)N2CCCCC2)ccc1Nc1nccc(-c2cnc3c(c2)C(C)(CO)CN3)n1` (single isomer, unassigned) [Compound 156], the IC50 under setting [2] is 3.2 nM. Same read-out and setting: the result for `COc1cc(C(=O)N2CCCCC2)ccc1Nc1nccc(-c2cnc3c(c2)C(C)(CO)CN3)n1` (single isomer, unassigned) [Compound 157] reads 63.1 nM. Same read-out and setting: the result for `COc1ccc(C#N)cc1Nc1nccc(-c2cnc3c(c2)C(C)(CO)CN3)n1` (single isomer, unassigned) [Compound 248] reads 1.3 nM; that for `COc1ccc(C#N)cc1Nc1nccc(-c2cnc3c(c2)C(C)(CO)CN3)n1` (single isomer, unassigned) [Compound 249], 17.8 nM. Turning to `COc1cc(N2CCOCC2)c(F)cc1Nc1nccc(-c2cnc3c(c2)C(C)(CO)CN3)n1` (single isomer, unassigned) [Compound 253], the half-maximal inhibitory concentration (IC50) by setting is: under setting [1], 102 nM; under setting [2], 42.7 nM.

Consider `COc1cc(N2CCOCC2)c(F)cc1Nc1nccc(-c2cnc3c(c2)C(C)(CO)CN3)n1` (single isomer, unassigned) [Compound 254], for which the IC50 under setting [1] was found to be 6.5 nM and the IC50 under setting [2] is 3.6 nM. For `Cc1cc(N2CCOCC2)c(F)cc1Nc1nccc(-c2cnc3c(c2)C(C)(CO)CN3)n1` (single isomer, unassigned) [Compound 255] the same measures were 10.2 nM and 7.2 nM. Taken in the same sequence, the figures for `Cc1cc(N2CCOCC2)c(F)cc1Nc1nccc(-c2cnc3c(c2)C(C)(CO)CN3)n1` (single isomer, unassigned) [Compound 256] were 155 nM and 155 nM. As for `Cc1cc(N2CCOCC2)c(Cl)cc1Nc1nccc(-c2cnc3c(c2)C(C)(CO)CN3)n1` (single isomer, unassigned) [Compound 257], the IC50 reads like this: under setting [1], 3 nM; under setting [2], 3.4 nM. Taken in the same sequence, the figures for `Cc1cc(N2CCOCC2)c(Cl)cc1Nc1nccc(-c2cnc3c(c2)C(C)(CO)CN3)n1` (single isomer, unassigned) [Compound 258] were 91.2 nM and 25.7 nM. For `CC1(CO)CNc2ncc(-c3ccnc(Nc4cc(C#N)c(N5CCOCC5)cc4Cl)n3)cc21` (single isomer, unassigned) [Compound 259], the IC50 under setting [1] worked out at 3.6 nM and the IC50 under setting [2] stood at 3.8 nM. For `CC1(CO)CNc2ncc(-c3ccnc(Nc4cc(C#N)c(N5CCOCC5)cc4Cl)n3)cc21` (single isomer, unassigned) [Compound 260] the same measures were 117 nM and 70.8 nM. Taken in the same sequence, the figures for `CC1(CO)CNc2ncc(-c3ccnc(Nc4cc(F)c(N5CCOCC5)cc4Cl)n3)cc21` (single isomer, unassigned) [Compound 261] were 8.3 nM and 7.2 nM.

Regarding `Cc1cc(N2CCOCC2)c(C#N)cc1Nc1nccc(-c2cnc3c(c2)C(C)(CO)CN3)n1` (single isomer, unassigned) [Compound 262], the IC50 runs as follows: under setting [1], 129 nM; under setting [2], 129 nM.

In the case of `CC1(CO)CNc2ncc(-c3ccnc(Nc4cc(F)c(N5CCOCC5)cc4Cl)n3)cc21` (single isomer, unassigned) [Compound 263], the IC50 under setting [1] stood at 129 nM and the IC50 under setting [2] stood at 53.7 nM. On to `Cc1cc(N2CCOCC2)c(C#N)cc1Nc1nccc(-c2cnc3c(c2)C(C)(CO)CN3)n1` (single isomer, unassigned) [Compound 264], for which the IC50 runs as follows: under setting [1], 6.6 nM; under setting [2], 6 nM.

`CC1(CO)CNc2ncc(-c3ccnc(Nc4cc(Cl)c(N5CCOCC5)cc4Cl)n3)cc21` (single isomer, unassigned) [Compound 265]: the IC50 under setting [1] is 47.9 nM and the IC50 under setting [2] is 35.5 nM.

`CC1(CO)CNc2ncc(-c3ccnc(Nc4cc(Cl)c(N5CCOCC5)cc4Cl)n3)cc21` (single isomer, unassigned) [Compound 266]: the IC50 under setting [1] was found to be 5 nM and the IC50 under setting [2] worked out at 1.9 nM.

For `CN(C)CCOc1cc(N2CCOCC2)c(Cl)cc1Nc1nccc(-c2cnc3c(c2)C(C)(CO)CN3)n1` (single isomer, unassigned) [Compound 274], the IC50 was found to be 2690 nM under setting [1] and 1450 nM under setting [2]. Turning to `CN(C)CCOc1cc(N2CCOCC2)c(F)cc1Nc1nccc(-c2cnc3c(c2)C(C)(CO)CN3)n1` (single isomer, unassigned) [Compound 286], the IC50 runs as follows: under setting [1], 7240 nM; under setting [2], 3390 nM.

With `COc1cc(N2CC(OC)C2)c(F)cc1Nc1nccc(-c2cnc3c(c2)C(C)(CO)CN3)n1` (single isomer, unassigned) [Compound 288], the concentration for half-maximal inhibition (IC50) under setting [1] is 112 nM and the IC50 under setting [2] came to 57.5 nM. Taken in the same sequence, the figures for `COc1cc(N2CCN(C)CC2)c(Cl)cc1Nc1nccc(-c2cnc3c(c2)C(C)(CO)CN3)n1` (single isomer, unassigned) [Compound 291] were 1.4 nM and 0.5 nM. Regarding `CCN1CCN(c2cc(OC)c(Nc3nccc(-c4cnc5c(c4)C(C)(CO)CN5)n3)cc2Cl)CC1` (single isomer, unassigned) [Compound 293], the IC50 under setting [1] is 1.5 nM and the IC50 under setting [2] turned out to be 0.5 nM. For `CCN1CCN(c2cc(OC)c(Nc3nccc(-c4cnc5c(c4)C(C)(CO)CN5)n3)cc2Cl)CC1` (single isomer, unassigned) [Compound 295] the same measures were 12.3 nM and 5.1 nM.

Regarding `CN(C)CCOc1cc(N2CCOCC2)c(F)cc1Nc1nccc(-c2cnc3c(c2)C(C)(CO)CN3)n1` (single isomer, unassigned) [Compound 297], the IC50 reads like this: under setting [1], 708 nM; under setting [2], 309 nM.
